Data taken from article PMC11129182, “Development of Inhibitors, Probes, and PROTAC Provides a Complete Toolbox to Study PARK7 in the Living Cell” (Journal of Medicinal Chemistry, 2024).
Where two headings read alike, the source gives them in different places.

How the values were obtained:
A549 cells = experiment: Cell viability assay (CellTiter-Blue); assay type: cell-based, human; details: up to 5 μM, 72 h incubation
Protocol: 5 × 10^3 A549 cells were seeded into 96-well plates. The following day, the indicated final concentrations of JYQ-164 and JYQ-173 were added to the cells, and DMSO was used as a control. Inhibitors were renewed at 36 h, and cells were incubated with them an additional 36 h. Cell viability was measured using the CellTiter-Blue viability assay (Promega). Relative survival was normalized to the DMSO-treated sample and corrected for background signal. page 8: Figure S6. Cytotoxicity assay for JYQ-164 and JYQ-173 in A549 cells. ( A) PARK7 engagement of JYQ -164 and JYQ-173 in A459 cells. A549 cells were incubated with […] The reactions were stopped by addition of NuPAGE™ LDS sample buffer (4x) , followed by cell lysis, SDS-PAGE, fluorescence scanning, and immunoblott in g against PARK7 and β-actin. β-actin was used as a loading control. (B) A549 cells were incubated with indicated concentration of JYQ-164 (left panel) or JYQ-173 (right panel) for 72 h where the inhibitors were renewed after 36 h. Cell viability was measured using the CellTiter-Blue assay. Relative viability was normalized to untreated control and corrected for background signal. S8 (1 picture or pasted object on this page, not shown here)

[1] = target: T1, reactive cysteine sites of other proteins in A549 cells (Homo sapiens, UniProt O60664); details: 4 h, O60664_C39 Perilipin-3
T1 sequence (O60664 1-434): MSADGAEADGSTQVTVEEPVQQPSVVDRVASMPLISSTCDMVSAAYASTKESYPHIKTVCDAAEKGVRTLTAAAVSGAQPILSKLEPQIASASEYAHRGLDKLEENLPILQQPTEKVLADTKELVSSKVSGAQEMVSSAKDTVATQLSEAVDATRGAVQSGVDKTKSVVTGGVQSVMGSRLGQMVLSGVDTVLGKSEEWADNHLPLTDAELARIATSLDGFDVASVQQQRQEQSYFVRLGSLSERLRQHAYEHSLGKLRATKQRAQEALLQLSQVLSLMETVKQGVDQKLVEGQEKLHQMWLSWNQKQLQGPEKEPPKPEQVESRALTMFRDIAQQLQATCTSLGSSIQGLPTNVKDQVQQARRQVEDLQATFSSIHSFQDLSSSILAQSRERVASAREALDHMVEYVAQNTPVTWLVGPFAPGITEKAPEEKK
Text: (§1) Further, the samples were digested with tosylsulfonyl phenylalanyl chloromethyl ketone (TPCK)-treated trypsin and endoGluC to increase the coverage of protein sequences, especially the PARK7 peptide containing Cys106 residue. Peptides generated by digestion from replicates of each sample were labeled using TMT16-plex to perform tandem mass tag (TMT)-based quantitative proteomics profiling. Following the TMT labeling, all samples were pooled and the peptides conjugated to the DBIA probe were enriched by streptavidin beads and analyzed by LC-MS/MS (Figure 3A). […] All cysteines were represented with the shortest peptide by using the average CR values of all the peptides with the same modified cysteine from the same protein in the same condition.[16],[27],[28]
(§2) A549 cells were seeded into 10 cm plates in 10 mL of media. […] The cells were then washed two times with cold PBS (1 mL per 10 cm plate) and collected by scraping them with a cell scraper. Cells were lysed by sonication in ice-cold PBS and centrifuged at 15,000 rpm for 2 min to remove cell debris. The BCA Gold protein assay (Thermo Fisher Scientific) was performed to determine protein concentration. Each sample (100 μg) was labeled with 500 μM DBIA probe for 1 h in the dark at room temperature (RT). Excess DBIA and disulfide bonds were quenched and reduced, respectively, using 5 mM dithiothreitol (DTT) for 30 min in the dark at RT. Reduced disulfide bonds were alkylated using 20 mM iodoacetamide for 30 min in the dark at RT. […] Digested peptides were labeled with TMTpro16-plex reagents (Thermo Fisher Scientific) in a 1:4 ratio by mass (peptides/TMT reagents) for 1 h at RT. Excess TMT reagent was quenched with 5 μL 6% hydroxylamine for 15 min at RT. All samples were then pooled and lyophilized.
(§3) Nonspecific binding peptides were washed away using the following procedure: 3 × 1 mL of PBS pH 7.4, 2 × 1 mL of PBS with 0.1% SDS pH 7.4, and 3 × 1 mL of HPLC-grade water. DBIA probe-containing peptides were eluted using 700 μL of 50% acetonitrile in 0.1% TFA, lyophilized using a Speedvac, and desalted using a handmade mini-SPE column (10% sorbent material of a Waters, OASIS 1 cm^3 HLB 30 mg cartridge). Column was equilibrated with 200 μL of 90% acetonitrile and 3 × 200 μL of 10 mM NH4HCO3 pH 8.4. The dried sample was dissolved in 200 μL of 10 mM NH4HCO3 pH 8.4, loaded onto the column, washed 3x with 200 μL of 10 mM NH4HCO3 pH 8.4, and eluted into 3 fractions with 150 μL of 10, 20, and 50% acetonitrile (in 10 mM NH4HCO3). Samples were then lyophilized.
(§4) 2.2.04 (www.matrixscience.com) for protein identification. Mascot searches were done with 10 ppm and 0.02 Da deviation for the precursor and fragment mass, respectively, and the enzymes trypsin and EndoGluC was specified, up to three missed cleavages were allowed. Methionine oxidation, acetyl (protein N-term), and DBIA on Cys were set as a variable modification. Carbamidomethyl on Cys and TMTpro on Lys and N-term were set as a fixed modification. Peptides with an FDR <1% were accepted. Peptides were only retained, if they were quantified and if there was exactly one DBIA modification on the peptide. The values for each TMT channel were normalized to the average of the values for the DMSO samples for the same peptide, and these values were named CR. For each peptide, the first entry of the Master Protein Accessions column was chosen as the Master Protein Accession, and the residue number of the cysteine modified by DBIA within the entire protein sequence was determined. Using this information, each peptide was assigned an identifier consisting of the Master Protein Accession and the residue number of the modified cysteine to assign each peptide to the respective modified cysteine residue. Within each replicate, CR values for all peptides with the same identifier (and thus the same modified cysteine residue) were combined by averaging and only the shortest Annotated Sequence was kept as the final Annotated Sequence.

[2] = target: reactive cysteine sites of other proteins in A549 cells (Homo sapiens, UniProt P04080); details: 4 h, P04080_C3 Cystatin-B
Text: as §1, §2, §3, §4

[3] = target: reactive cysteine sites of other proteins in A549 cells (Homo sapiens, UniProt P40222); details: 4 h, P40222_C87 Alpha-taxilin
Text: as §1, §2, §3, §4

[4] = target: reactive cysteine sites of other proteins in A549 cells (Homo sapiens, UniProt Q13085); details: 4 h, Q13085_C1297 Acetyl-CoA carboxylase 1
Text: as §1, §2, §3, §4

reactive cysteine sites of other proteins in A549 cells (Homo sapiens, UniProt P04080), sequence (P04080 whole entry): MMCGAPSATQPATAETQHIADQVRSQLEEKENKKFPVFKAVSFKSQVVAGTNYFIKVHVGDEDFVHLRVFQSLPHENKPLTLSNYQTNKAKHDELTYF
reactive cysteine sites of other proteins in A549 cells (Homo sapiens, UniProt P40222), sequence (P40222 whole entry): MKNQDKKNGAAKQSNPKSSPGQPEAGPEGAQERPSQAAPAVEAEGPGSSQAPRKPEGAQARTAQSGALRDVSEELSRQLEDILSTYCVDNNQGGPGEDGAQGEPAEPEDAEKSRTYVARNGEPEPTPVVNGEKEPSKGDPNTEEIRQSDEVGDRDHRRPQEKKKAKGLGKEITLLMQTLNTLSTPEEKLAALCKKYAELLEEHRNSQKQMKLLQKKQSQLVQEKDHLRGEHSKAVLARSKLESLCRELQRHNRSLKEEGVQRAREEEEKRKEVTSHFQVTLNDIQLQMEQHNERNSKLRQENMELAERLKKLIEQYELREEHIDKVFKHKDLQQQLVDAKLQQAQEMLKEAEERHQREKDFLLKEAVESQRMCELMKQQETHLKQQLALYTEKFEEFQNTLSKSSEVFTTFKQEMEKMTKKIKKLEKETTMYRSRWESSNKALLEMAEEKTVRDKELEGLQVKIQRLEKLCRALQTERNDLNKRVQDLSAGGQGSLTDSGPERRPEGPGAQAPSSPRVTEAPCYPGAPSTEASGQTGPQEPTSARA

N#CN1CC[C@@H](C(=O)Nc2nc3c(s2)CN(C(=O)c2cccc(S(=O)(=O)N4CCOCC4)c2)CC3)C1 [Compound 340, (R)-1-Cyano-N-(5-(3-(morpholinosulfonyl)benzoyl)-4,5,6,7-tetrahydrothiazolo[5,4-c]pyridin-2-yl)pyrrolidine-3-carboxamide]
cytotoxicity (A549 cells): did not show any cytotoxicity
Average log2 CR (DMSO/inhibitor) ([1]; A549, 0.5 µM): 0.5943
Average log2 CR (DMSO/inhibitor) ([1]; A549, 5 µM): 0.5954
Average log2 CR (DMSO/inhibitor) ([2]; A549, 0.5 µM): 1.056
Average log2 CR (DMSO/inhibitor) ([2]; A549, 5 µM): 0.758
Average log2 CR (DMSO/inhibitor) ([3]; A549, 0.5 µM): 0.6134
Average log2 CR (DMSO/inhibitor) ([3]; A549, 5 µM): 0.7033
Average log2 CR (DMSO/inhibitor) ([4]; A549, 0.5 µM): 0.8087
Average log2 CR (DMSO/inhibitor) ([4]; A549, 5 µM): 0.7839
